Test results: PMC12639897 (Journal of Translational Medicine, 2025)

Molecular target: T1, β-catenin (Homo sapiens, UniProt P35222)
T1 sequence (P35222 2-781): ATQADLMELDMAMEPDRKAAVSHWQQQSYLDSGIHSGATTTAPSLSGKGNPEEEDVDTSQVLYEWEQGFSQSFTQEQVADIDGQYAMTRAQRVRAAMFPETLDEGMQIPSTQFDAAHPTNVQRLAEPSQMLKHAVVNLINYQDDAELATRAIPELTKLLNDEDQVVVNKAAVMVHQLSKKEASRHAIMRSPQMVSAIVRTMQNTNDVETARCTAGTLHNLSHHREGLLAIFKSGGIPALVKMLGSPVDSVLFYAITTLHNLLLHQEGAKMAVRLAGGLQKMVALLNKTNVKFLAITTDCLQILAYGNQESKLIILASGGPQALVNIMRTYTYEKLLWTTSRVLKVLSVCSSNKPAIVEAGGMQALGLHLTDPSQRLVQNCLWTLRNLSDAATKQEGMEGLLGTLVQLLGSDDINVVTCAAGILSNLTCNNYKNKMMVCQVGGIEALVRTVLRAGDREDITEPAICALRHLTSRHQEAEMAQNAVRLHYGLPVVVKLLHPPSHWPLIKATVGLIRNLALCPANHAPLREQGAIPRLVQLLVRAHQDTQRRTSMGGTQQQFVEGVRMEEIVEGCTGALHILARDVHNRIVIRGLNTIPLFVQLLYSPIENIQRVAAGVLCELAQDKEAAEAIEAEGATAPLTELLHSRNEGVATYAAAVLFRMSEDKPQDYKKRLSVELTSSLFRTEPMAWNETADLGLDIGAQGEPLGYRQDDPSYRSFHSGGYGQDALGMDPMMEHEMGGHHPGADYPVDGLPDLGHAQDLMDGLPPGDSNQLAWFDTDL
Assay: Biolayer interferometry
Format: binding

Compound: Cc1cccc2c3c(ccc12)C1=C(C(=O)C3=O)[C@@H](C)CO1 [DHTS, 15,16-Dihydrotanshinone I]
- Kd: 14.6 µM
